Patent EP0609289B1, “IMIDAZOLE DERIVATIVES AND PHARMACEUTICAL COMPOSITIONS CONTAINING THE SAME” (THE UPJOHN COMPANY, priority 1991, dated 1993)

molecular target: Angiotensin II receptor; experiment: In vitro angiotensin II mesenteric artery receptor binding assay (test 1); details: rat mesenteric artery membrane fraction, 0.2 nM 125I-Ang II, 22°C, 90 minutes
Description: I) In vitro angiotensin II mesenteric artery receptor binding assay
According to the method (1) by Gunther et al., a membrane fraction was prepared from mesenteric artery of male rat, […] protein equivalent of it and 0.2 nM ^125I-Ang II as well as various concentrations of test compounds were incubated at 22°C for 90 minutes in an incubation buffer (50 mM Tris-HCl, 120 mM NaCl, 5 mM MgCl2. 0.25% bovine serum albumin, pH 7.2) (reaction volume; 200 µl). The incubated was cooled, and the reaction was stopped by addition of ice-cooled phosphate buffer (10 mM phosphate, 140 mM NaCI, pH 7.4, hereinafter referred to as PBS), and then the reaction solution was filtered through a glass fiber filter (Whatman CF/B), the filter was washed, dried, and then the radioactivity of captured ^125I-angiotensin II which bound to the receptor was measured by a γ-counter. Non-specific bound amount was obtained from the reaction in the presence of 1 µM of unlabeled angiotensin II. […] Res., 17:278-286, 1980].

Row | IC50 [nM] | Molecule
1 | 69 | CCCCc1nc2c(=O)n3n(c(=O)c2n1Cc1ccc(-c2ccccc2-c2nn[nH]n2)cc1)C1(C(=O)OC)CCC3CC1 [Compound No. 156, methyl 2-n-butyl-5,8-ethano-4,9-dioxo-5,6,7,8-tetrahydro-1-[{2'-(1H-tetrazol-5-yl)biphenyl-4-yl}methyl]-1H-1,3,4a,8a-tetraza-cyclopentanaphthalene-8-carboxylate]
2 | 38 | CCCc1nc2c(=O)n3n(c(=O)c2n1Cc1ccc(-c2ccccc2-c2nnn[nH]2)cc1)C1CCC3(COCC(C)O)CC1 (centres unmarked) [Compound No. 227, 5,8-ethano-5-(2-hydroxypropyl)methoxynethyl-2-n-propyl-5,6,7,8-tetrahydro-1-[{2'-(1H-tetrazol-5-yl)biphenyl-4-yl}methyl]-1H-1,3,4a,8a-tetraza-cyclopentanaphthalene-4,9-dione]
3 | > 100 | 2-n-butyl-5-hydroxymethyl-8-methyl-5,6,7,8-tetrahydro-1H,4H-1,3,4a,8a-tetraza-cyclopentanaphthalene-9-one [Compound No. 541]
4 | 47 | CCCc1nc2c(=O)n3n(c(=O)c2n1Cc1ccc(-c2ccccc2-c2nnn[nH]2)cc1)C(C(=O)N(CC)CC)CCC3C (centres unmarked) [Compound No. 205, 4,9-dioxo-5-methyl-2-n-propyl-5,6,7,8-tetrahydro-1-[{2'-(1H-tetrazol-5-yl)biphenyl-4-yl}methyl]-1H-1,3,4a,8a-tetraza-cyclopentanaphthalene-8-carboxy-N,N-diethylamide]
5 | 20 | CCCc1nc2c(n1Cc1ccc(-c3ccccc3-c3nnn[nH]3)cc1)C(=O)N1C(c3ccccc3)CCCN1C2 (centres unmarked) [Compound No. 470, 8-phenyl-2-n-propyl-5,6,7,8-tetrahydro-1-[{2'-(1H-tetrazol-5-yl)biphenyl-4-yl}methyl]-1H,4H-1,3,4a,8a-tetraza-cyclopentanaphthalene-9-one]
6 | > 100 | CCCCc1nc2c(=O)n3n(c(=O)c2n1Cc1ccc(-c2ccccc2-c2nn[nH]n2)cc1)C1(C(=O)NC(C)(C)C)CCC3CC1 [Compound No. 238, 2-n-butyl-4,9-dioxo-5,8-ethano-5,6,7,8-tetrahydro-1-[{2'-(1H-tetrazol-5-yl)biphenyl-4-yl}methyl]-1H-1,3,4a,8a-tetraza-cyclopentanaphthalene-8-carboxy-N-t-butylamide]
7 | > 100 | CCCCc1nc2c(=O)n3n(c(=O)c2n1Cc1ccc(C(=O)O)cc1)C(C(=O)O)CCC3C (centres unmarked) [compound 121, 2-n-butyl-1-[(4-carboxyphenyl)methyl]-4,9-dioxo-5-methyl-5,6,7,8-tetrahydro-1H-1,3,4a,8a-tetraza-cyclopentanaphthalene-8-carboxylic acid]

Second part, the molecule before the results:

Row | Molecule | IC50 [nM]
8 | CCCc1nc2c(n1Cc1ccc(-c3ccccc3-c3nn[nH]n3)cc1)C(=O)N1CC(C)C(C)CN1C2 (centres unmarked) [Compound No. 378, 6,7-dimethyl-2-n-propyl-5,6,7,8-tetrahydro-1-[{2'-(1H-tetrazol-5-yl)biphenyl-4-yl}methyl]-1H,4H-1,3,4a,8a-tetraza-cyclopentanaphthalene-9-one] | 4.6
9 | CCCc1nc2c(=O)n3n(c(=O)c2n1Cc1ccc(-c2ccccc2-c2nn[nH]n2)cc1)C(C)CCC3C (centres unmarked) [compound 337, 5,8-dimethyl-2-n-propyl-5,6,7,8-tetrahydro-1-[{2'-(1H-tetrazol-5-yl)biphenyl-4-yl}methyl]-1H-1,3,4a,8a-tetraza-cyclopentanaphthalene-4,9-dione] | 4.6
10 | CCCCc1nc2c(n1Cc1ccc(-c3ccccc3-c3nnn[nH]3)cc1)CN1C(C)CCC(CO)N1C2=O (centres unmarked) [Compound No. 538, 2-n-butyl-5-hydroxymethyl-8-methyl-5,6,7,8-tetrahydro-1-[{2'-(1H-tetrazol-5-yl)biphenyl-4-yl}methyl]-1H-9H-1,3,4a,8a-tetraza-cyclopentanaphthalene-4-one] | > 100
11 | CCCCc1nc2c(=O)n3n(c(=O)c2n1Cc1ccc(C(=O)O)cc1)C(C)CCC3C(=O)O (centres unmarked) [compound 124, 2-n-butyl-1[(4-carboxyphenyl)methyl]-4,9-dioxo-8-methyl-5,6,7,8-tetrahydro-1H-1,3,4a,8a-tetraza-cyclopentanaphthalene-5-carboxylic acid] | > 100
